# How the values were obtained:
# Type in all cases: cell-based, human
# [1] = system: RS4;11 and SEM cells; assay: Cytochrome c release by flow cytometry; conditions: CP 2.5 μM, 24 h
# Procedure: To determine whether the apoptotic stimuli involved mitochondria alteration, we examined the mitochondrial transmembrane potential (ΔΨmt) by means of the fluorescence dye JC-1.
# FIGURE 2 CP induces caspase-dependent apoptosis without mitochondria involvement (A) Assessment of mitochondrial membrane potential (ΔΨmt) after treatment of RS4;11 and SEM cells with CP (2.5 μM) for the indicated times. Cells were stained with the fluorescent probe JC-1. Data are represented as mean ± S.E.M. of three independent experiments. (B) Flow cytometric analysis of RS4;11 and SEM cells treated with CP (2.5 μM) for 24 h showing cytochrome c labeled with a monoclonal antibody conjugated to FITC. Representative image of three experiments with similar results. (C) Cells were incubated with CP 2.5 μM and 5 μM in the presence or absence of the pan-caspase inhibitor z-VAD.fmk (100 μM). Cell viability was determined after 48 h by MTT assay. […]
# The mitochondrial membrane potential was measured with the lipophilic cation 5,5',6,6'-tetrachlo-1,1',3,3'-tetraethylbenzimidazolyl-carbocyanine (JC-1) (Life Technologies, Italy) as previously described. Cytochrome c release was analyzed by flow cytometry using a commercial kit (Innocyte flow cytometric cytochrome c release kit, Calbiochem, Italy) following the manufacturer's instructions.
# [2] = system: Resting healthy PBMC; assay: MTT growth inhibition, 72 h; conditions: mean ± SE
# [3] = system: CCRF-CEM (T-acute lymphoblastic leukemia); assay: MTT growth inhibition, 72 h; conditions: mean ± SE
# Procedure: (§1) [Cu(thp)4][PF6] (CP) was evaluated for its growth inhibition activity on a panel of twelve different human leukemia cell lines (five B-acute lymphoblastic leukemia, three T-acute lymphoblastic leukemia, three acute myeloid leukemia and one chronic myeloid leukemia). Cells were treated for 72 h with CP and cell viability was evaluated by MTT test. […] This abnormal high expression of proteasomal proteins and mRNA seem to be correlated to the hyperproliferation of these cancer cells and to the sensitivity towards proteasome inhibitors.
# (§2) The human leukemia cell lines RS 4;11, SEM, REH, RCH-ACV, MHH-CALL2, Jurkat, CCRF-CEM, HSB2, HL-60, K562, THP-1, MV4;11 were purchased from the American Type Culture Collection. Cells were cultured in RPMI 1640 (Life Technologies, Italy) supplemented with 10% fetal bovine serum (FBS), glutamine (2 mM; Life Technologies, Italy), penicillin (100 U/ml; Life Technologies, Italy) and streptomycin (100 μg/ml; Life Technologies, Italy), and maintained at 37°C in a humidified atmosphere with 5% CO2. The cytotoxic activity of CP was determined using a standard 3-[4,5-dimethylthiazol-2-yl]-2,5-diphenyltetrazodium bromide (MTT) based colorimetric assay (Sigma-Aldrich, Italy). Briefly, cells were seeded at a density of 2×10^4 cells/well in 96-well microtiter plates. After 24 h, cells were exposed to the test compound. After different times, cell survival was determined by the addition of an MTT solution as previously described.
# [4] = system: RS4;11 (B-acute lymphoblastic leukemia); assay: MTT growth inhibition, 72 h; conditions: RS4;11, 72 h, mean ± SE
# Procedure: as §1, §2
# [5] = system: HSB-2 (T-acute lymphoblastic leukemia); assay: MTT growth inhibition, 72 h; conditions: HSB-2, 72 h, mean ± SE
# Procedure: as §1, §2
# [6] = system: SEM (B-acute lymphoblastic leukemia); assay: MTT growth inhibition, 72 h; conditions: mean ± SE
# Procedure: as §1, §2
# [7] = system: MHH-CALL2 (B-acute lymphoblastic leukemia); assay: MTT growth inhibition, 72 h; conditions: MHH-CALL2, 72 h, mean ± SE
# Procedure: as §1, §2
# [8] = system: REH (B-acute lymphoblastic leukemia); assay: MTT growth inhibition, 72 h; conditions: mean ± SE
# Procedure: as §1, §2
# [9] = system: RCH-ACV (B-acute lymphoblastic leukemia); assay: MTT growth inhibition, 72 h; conditions: mean ± SE
# Procedure: as §1, §2
# [10] = system: MV4;11 (acute myeloid leukemia); assay: MTT growth inhibition, 72 h; conditions: MV4;11, 72 h, mean ± SE
# Procedure: as §1, §2
# [11] = system: K562 (chronic myeloid leukemia); assay: MTT growth inhibition, 72 h; conditions: K562, 72 h, mean ± SE
# Procedure: as §1, §2
# [12] = system: THP-1 (acute myeloid leukemia); assay: MTT growth inhibition, 72 h; conditions: THP-1, 72 h, mean ± SE
# Procedure: as §1, §2
# [13] = system: Jurkat (T-acute lymphoblastic leukemia); assay: MTT growth inhibition, 72 h; conditions: mean ± SE
# Procedure: as §1, §2
# [14] = system: HL60 (promyelocytic leulemia); assay: MTT growth inhibition, 72 h; conditions: HL60, 72 h, mean ± SE
# Procedure: as §1, §2
# [15] = system: resting PBMC; assay: MTT viability of healthy cells, 24 h
# Procedure: CP growth inhibitory activity was measured on primary cultures derived from pediatric patients affected by B-acute lymphoblastic leukemia. […] In particular, in resting and in PHA-stimulated PBMC, and in CD19^+ cells GI50 was higher than 10 μM confirming that CP preferentially affects leukemia cells.
# FIGURE 6 CP effects on B-ALL primary cultures (A) Blast cells from six B-ALL patients were incubated for 24 h with different concentrations of CP. For the sake of comparison CD19^+ cells from peripheral blood of healthy donors, and PBMC were also incubated with CP in the presence or absence of PHA. Cell viability were assayed by MTT analysis. Data are represented as mean ± S.E.M of four independent experiments. (B) Bone marrow cells from healthy donors were treated for 24 h with CP (2.5 μM and 5 μM). Cell viability was evaluated on the whole population by flow cytometry after staining the cells with Annexin-V-FITC and PI. are represented as mean ± S.E.M of 3 independent experiments. (C) Western Blot analysis of GRP78 and CHOP expression, PARP cleavage and caspase-3 activation, on protein extracts of blast cells from B-ALL patients treated with CP (2.5 μM) for 12 h.
# Peripheral blood mononuclear cells (PBMC) and bone marrow cells from healthy donors were obtained by separation on Lymphoprep (Fresenius KABI, Norge AS) gradient. After extensive washing, cells were resuspended (1.0 × 10^6 cells/ml) in RPMI1640 with 10% fetal bovine serum and incubated overnight in 96-well tissue culture microtiter plate. For cytotoxicity evaluations in proliferating PBMC cultures, non-adherent cells were resuspended in growth medium, containing 2.5 μg/ml phytohematoglutinin (PHA) (Irvine Scientific). To isolate B-lymphocyte, PBMC obtained by Lymphoprep (Fresenius KABI, Norge AS) separation were labeled with anti-CD19-APC (BD Biosciences, Italy) and collected by cell sorting.
compound,measurement,setting,value
"F[P-](F)(F)(F)(F)F.OCP(CO)CO.OCP(CO)CO.OCP(CO)CO.OCP(CO)CO.[Cu+] [CP, [Cu(thp)4][PF6]]",cytochrome c release,[1],did not reveal cytochrome c release
same,GI50,[2],22.7 ± 2.9 µM
same,GI50,[3],3.9 ± 0.22 µM
same,GI50,[4],0.3 ± 0.01 µM
same,GI50,[5],15.1 ± 0.26 µM
same,GI50,[6],1.6 ± 0.06 µM
same,GI50,[7],1.9 ± 0.1 µM
same,GI50,[8],4.2 ± 0.2 µM
same,GI50,[9],0.9 ± 0.2 µM
same,GI50,[10],1.2 ± 0.2 µM
same,GI50,[11],23.2 ± 1 µM
same,GI50,[12],17.2 ± 1 µM
same,GI50,[13],16.7 ± 2.6 µM
same,GI50,[14],12.1 ± 2.8 µM
same,GI50,[15],> 10 µM

# Reference: article PMC4171606, “A novel copper(I) complex induces ER-stress-mediated apoptosis and sensitizes B-acute lymphoblastic leukemia cells to chemotherapeutic agents” (Oncotarget, 2014)
